Test results taken from patent US9394299B2, “Rilyazine derivatives and compositions for the treatment of cancer” (Warner Babcock Institute for Green Chemistry, LLC, priority 2013, dated 2016).

How the values were obtained:
MCF-shWISP cells = assay: MTT cell proliferation assay, MCF-shWISP; format: cell-based; details: 72 h-exposure, 30-0.041 μM
Procedure: In vitro characterizing of the effects of rilyazine analogs on cell proliferation and apoptosis in the paired epithelial/mesenchymal lines (Colo205/Colo-R, DLD/DLD-SNAIL and MCF7/MCF7-WISP) was performed in an independent laboratory.
The Dose Preparation is based on a reconstitute in DMSO. The Concentration of the stock solution is 100 mM. Storage of the stock solution is under −80° C.
Working drug solution of rilyazine analogs: A stock solution of 100 mM OTX015 in DMSO was prepared and stored at −80° C. For growth inhibition studies, dilution series were prepared by (1) diluting stock solution into DMSO, then (2) diluting 1:300 in culture medium supplemented with 10% FBS giving a final concentration in 0.3% DMSO in the 96-well plates.
Cell lines. Cells lines were maintained in RPMI 1640 (PAA Laboratories, France) supplemented with 10% fetal bovine serum (FBS; PAA Laboratories, France), 2 mM glutamine (PAA Laboratories, France), 100 units/ml penicillin and 100 μg/ml streptomycin (PAA Laboratories, France). Cells were free of Mycoplasma.
Proliferation assays. Cell proliferation was determined using the MTT assay (3-[4,5-dimethylthiazol-2-yl]-2,5-diphenyltetrazolium bromide; Sigma-Aldrich, St. Louis, Mo.). […] After incubation, the supernatant was discarded, the cell pellet was resuspended in 0.1 mL DMSO, and the absorbance was measured at 560 nm using a microplate reader (Thermo, France). […]

MCF7 (Breast Cancer) = assay: NCI five point dosing, MCF7; format: cell-based; details: Homo sapiens
Procedure: (§1) RL-4 was evaluated against the 60 cell panel at five concentration levels, 10^−8 M, 10^−7 M, 10^−6 M, 10^−5 M and 10^−4 M.
(§2) The human tumor cell lines of the cancer screening panel are grown in RPMI 1640 medium containing 5% fetal bovine serum and 2 mM L-glutamine. Cells are inoculated into 96 well microtiter plates in 100 μL at plating densities ranging from 5,000 to 40,000 cells/well depending on the doubling time of individual cell lines. After cell inoculation, the microtiter plates are incubated at 37° C., 5% CO2, 95% air and 100% relative humidity for 24 h prior to addition of experimental drugs. […]
(§3) Following drug addition, the plates are incubated for an additional 48 h at 37° C., 5% CO2, 95% air, and 100% relative humidity. […] Bound stain is subsequently solubilized with 10 mM trizma base, and the absorbance is read on an automated plate reader at a wavelength of 515 nm. […]
(§4) The percentage growth is calculated at each of the five drug concentrations levels using the seven absorbance measurements, namely absorbance at time zero (Tz), absorbance of control after incubation (C), and absorbance of test sample after incubation in the presence of drug at each of the five concentration levels (Ti). The Growth Percent is calculated as it was for the 1 dose assay: Growth Percent=[(Ti−Tz)/(C−Tz)]×100 for cell line/drug combinations for which Ti≧Tz. […]

[1] = test system: NCI-H322M (non-small cell lung cancer); assay: NCI five point dosing, NCI-H322M; format: cell-based, human
Procedure: as §1, §2, §3, §4

SK-MEL-28 (Melanoma) = assay: NCI single point 10 μM, SK-MEL-28; format: cell-based, human; details: 10^−5 M
Procedure: The screening is a two-stage process, beginning with the evaluation of all compounds against 60 cell lines at a single dose of 10^−5 M.
as §2, §3
For the 1-dose 60 cell testing, the Growth Percent is calculated for each cell line/drug combination from the absorbance measurement for the no-drug control (C), the absorbance at time zero (Tz) and the absorbance measurement after incubation of the cells in the presence of drug (Ti): Growth Percent=[(Ti−Tz)/(C−Tz)]×100 for cell line/drug combinations for which Ti≧Tz. […]

`S=c1c2ncccc2c(-c2ccccn2)nn1C1CCCCC1` [RL-4, 7-cyclohexyl-5-(pyridin-2-yl)pyrido[2,3-d]pyridazine-8(7H)-thione] was tested, and the “anti-proliferative effects (in words)” value (MCF-shWISP cells) was “dose-dependent anti-proliferative effects”, the GI50 (MCF7 (Breast Cancer)) was 353 nM and the Growth Percent ([1]; 10^−4 M dose) was 60%. For the same molecule, the GI50 ([1]; Homo sapiens, five point dosing) was > 100000 nM and the “Growth Percent” value (SK-MEL-28 (Melanoma)) was 93.53%.
